What was measured:
[1] = biological target: EGFR (Homo sapiens, UniProt P00533); assay: EGFR kinase activity, fluorescence-based coupled-enzyme assay; assay type: biochemical
[2] = biological target: human Ether-a-go-go Related Gene (hERG) K+ channel (Homo sapiens, UniProt Q12809); assay: hERG K+ channel binding / blockage; settings: 6 µM of compound
[3] = biological target: CYP2C9 (Homo sapiens, UniProt P11712); assay: cytochrome p450 CYP2C9 inhibition; settings: 6 µM of compound
[4] = tested on: H1299 lung tumor cell; assay: cell culture-based proliferation assay, H1299; settings: Homo sapiens, NCI-H1299, read-out: IC50 of H1299 tumor cell growth
[5] = tested on: breast, ovarian and lymphatic leukemia; settings: cited from earlier work
[6] = tested on: H460 lung tumor cell; assay: cell culture-based proliferation assay, H460; settings: Homo sapiens, NCI-H460, read-out: IC50 of H460 tumor cell growth

CYP2C9, sequence (P11712 whole entry): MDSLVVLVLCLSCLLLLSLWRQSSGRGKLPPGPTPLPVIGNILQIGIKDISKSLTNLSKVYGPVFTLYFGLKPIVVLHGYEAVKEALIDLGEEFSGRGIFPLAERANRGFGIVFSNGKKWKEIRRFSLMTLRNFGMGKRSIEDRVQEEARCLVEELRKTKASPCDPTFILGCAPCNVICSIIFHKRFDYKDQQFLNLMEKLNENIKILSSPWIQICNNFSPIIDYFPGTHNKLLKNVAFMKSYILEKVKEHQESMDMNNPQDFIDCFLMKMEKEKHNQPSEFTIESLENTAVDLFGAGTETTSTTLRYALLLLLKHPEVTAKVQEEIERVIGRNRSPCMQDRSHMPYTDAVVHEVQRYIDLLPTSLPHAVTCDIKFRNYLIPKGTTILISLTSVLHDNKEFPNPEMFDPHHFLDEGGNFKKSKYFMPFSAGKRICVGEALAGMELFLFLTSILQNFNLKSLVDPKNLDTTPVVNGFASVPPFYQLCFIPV
human Ether-a-go-go Related Gene (hERG) K+ channel, sequence (Q12809 whole entry): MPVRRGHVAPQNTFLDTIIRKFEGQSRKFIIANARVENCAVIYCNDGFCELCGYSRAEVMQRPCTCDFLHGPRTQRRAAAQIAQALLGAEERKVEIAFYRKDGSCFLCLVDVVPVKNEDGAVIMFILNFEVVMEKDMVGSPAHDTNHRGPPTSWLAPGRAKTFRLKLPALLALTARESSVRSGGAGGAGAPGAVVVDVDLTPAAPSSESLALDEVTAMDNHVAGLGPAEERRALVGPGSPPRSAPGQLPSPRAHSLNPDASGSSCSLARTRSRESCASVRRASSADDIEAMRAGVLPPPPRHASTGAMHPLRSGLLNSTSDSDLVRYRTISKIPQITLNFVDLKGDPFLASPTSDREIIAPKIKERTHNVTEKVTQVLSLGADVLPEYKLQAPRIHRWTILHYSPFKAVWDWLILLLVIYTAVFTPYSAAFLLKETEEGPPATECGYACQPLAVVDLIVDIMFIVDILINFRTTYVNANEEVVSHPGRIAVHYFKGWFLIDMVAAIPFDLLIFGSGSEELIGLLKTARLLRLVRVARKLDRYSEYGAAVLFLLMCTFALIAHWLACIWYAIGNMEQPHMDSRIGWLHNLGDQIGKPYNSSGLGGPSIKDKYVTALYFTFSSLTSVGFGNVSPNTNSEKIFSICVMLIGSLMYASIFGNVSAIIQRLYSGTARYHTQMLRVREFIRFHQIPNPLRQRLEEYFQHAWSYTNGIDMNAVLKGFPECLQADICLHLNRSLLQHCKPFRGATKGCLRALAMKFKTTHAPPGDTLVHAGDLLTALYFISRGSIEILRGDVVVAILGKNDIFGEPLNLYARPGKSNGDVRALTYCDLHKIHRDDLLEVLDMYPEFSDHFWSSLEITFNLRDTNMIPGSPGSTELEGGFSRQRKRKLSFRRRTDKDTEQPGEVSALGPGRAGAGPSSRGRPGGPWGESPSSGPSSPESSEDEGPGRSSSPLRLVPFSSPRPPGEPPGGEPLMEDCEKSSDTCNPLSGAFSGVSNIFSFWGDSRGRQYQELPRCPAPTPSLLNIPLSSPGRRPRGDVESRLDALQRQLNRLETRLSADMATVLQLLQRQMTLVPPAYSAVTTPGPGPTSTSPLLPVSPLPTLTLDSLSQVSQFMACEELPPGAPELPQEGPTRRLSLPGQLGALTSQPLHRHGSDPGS
EGFR, sequence (P00533 25-1210): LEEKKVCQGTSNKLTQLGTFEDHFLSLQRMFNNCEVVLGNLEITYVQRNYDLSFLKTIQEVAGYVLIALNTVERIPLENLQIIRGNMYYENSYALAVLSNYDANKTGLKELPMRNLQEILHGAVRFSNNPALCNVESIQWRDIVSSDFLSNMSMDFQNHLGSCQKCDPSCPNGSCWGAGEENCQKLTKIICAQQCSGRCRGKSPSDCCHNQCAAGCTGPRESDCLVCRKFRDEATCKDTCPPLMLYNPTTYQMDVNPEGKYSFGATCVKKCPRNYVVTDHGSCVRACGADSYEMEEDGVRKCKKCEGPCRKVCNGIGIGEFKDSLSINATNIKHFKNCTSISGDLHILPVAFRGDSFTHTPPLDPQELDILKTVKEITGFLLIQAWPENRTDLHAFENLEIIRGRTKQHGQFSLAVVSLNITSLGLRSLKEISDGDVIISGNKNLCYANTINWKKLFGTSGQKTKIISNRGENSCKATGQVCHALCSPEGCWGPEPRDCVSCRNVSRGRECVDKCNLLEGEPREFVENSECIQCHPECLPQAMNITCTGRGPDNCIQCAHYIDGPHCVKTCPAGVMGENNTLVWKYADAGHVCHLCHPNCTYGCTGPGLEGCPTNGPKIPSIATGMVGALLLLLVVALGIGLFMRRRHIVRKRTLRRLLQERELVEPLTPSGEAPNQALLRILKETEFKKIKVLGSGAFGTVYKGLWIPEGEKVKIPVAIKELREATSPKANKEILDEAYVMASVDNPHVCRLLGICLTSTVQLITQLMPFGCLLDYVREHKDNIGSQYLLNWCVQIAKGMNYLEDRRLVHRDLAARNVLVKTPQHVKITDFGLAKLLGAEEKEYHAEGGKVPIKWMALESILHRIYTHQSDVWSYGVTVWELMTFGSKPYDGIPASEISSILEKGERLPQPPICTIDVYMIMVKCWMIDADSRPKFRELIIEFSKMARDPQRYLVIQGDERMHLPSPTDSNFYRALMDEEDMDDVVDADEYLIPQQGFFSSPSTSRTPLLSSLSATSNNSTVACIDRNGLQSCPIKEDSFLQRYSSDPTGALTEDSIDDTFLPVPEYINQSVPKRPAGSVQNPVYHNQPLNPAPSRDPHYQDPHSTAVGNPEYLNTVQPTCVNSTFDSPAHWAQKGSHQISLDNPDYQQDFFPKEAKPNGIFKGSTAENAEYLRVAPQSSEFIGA

SMILES | IC50 [1] [µM] | hERG K+ channel blockage (in words) [2] | inhibition of CYP2C9 (in words) [3] | IC50 [4] [µM] | efficacy in breast, ovarian and lymphatic leukemia [5] | IC50 [6] [µM]
C[C@H]1Oc2cc3c(-c4c(O)cc(O)c5c(O)c6c(cc45)O[C@H](C)[C@@H](C)C6=O)c(O)cc(O)c3c(O)c2C(=O)[C@@H]1C [Compound 12, Chaetochromin A] | 0.25 | significant blockage | significant inhibition | ~1 | shown efficacy | –
C#Cc1cccc(Nc2ncnc3cc(OCCOC)c(OCCOC)cc23)c1 [erlotinib, reference compound] | – | – | little inhibition | ~10 | – | ~10

From paper PMC2931832 (ACS medicinal chemistry letters, 2010)
